Here are results for 10 compounds from ChEMBL document CHEMBL1142268, “Histone deacetylase inhibitors: from bench to clinic” (J Med Chem, 2008).

The structures appear in SMILES notation. Active and inactive are the calls of the source. The calls are words filed in the database; no cut-off is given here. A value given as a limit tells only on which side of the number the result lay.

Among the targets are Histone deacetylase 3 (Homo sapiens, UniProt O15379); Histone deacetylase 9 (Homo sapiens, UniProt Q9UKV0); Histone deacetylase 5 (Homo sapiens, UniProt Q9UQL6); Histone deacetylase 7 (Homo sapiens, UniProt Q8WUI4).
In test [1] the target is T1, Histone deacetylase 1 (Homo sapiens, UniProt Q13547).
T1 sequence (Q13547 whole entry): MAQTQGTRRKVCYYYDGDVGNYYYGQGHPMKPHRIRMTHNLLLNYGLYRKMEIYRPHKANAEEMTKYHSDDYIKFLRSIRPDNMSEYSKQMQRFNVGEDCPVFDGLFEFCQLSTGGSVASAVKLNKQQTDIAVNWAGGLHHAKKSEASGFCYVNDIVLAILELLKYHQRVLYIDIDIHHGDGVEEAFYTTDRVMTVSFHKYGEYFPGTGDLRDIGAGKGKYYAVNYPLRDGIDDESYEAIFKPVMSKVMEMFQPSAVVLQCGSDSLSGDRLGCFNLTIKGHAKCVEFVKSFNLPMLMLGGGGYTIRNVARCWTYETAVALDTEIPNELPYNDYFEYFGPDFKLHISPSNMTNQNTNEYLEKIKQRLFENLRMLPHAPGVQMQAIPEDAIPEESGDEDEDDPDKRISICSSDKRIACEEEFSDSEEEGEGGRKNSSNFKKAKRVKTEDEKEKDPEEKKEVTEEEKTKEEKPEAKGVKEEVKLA
Test [2] addresses Histone deacetylase 8 (Homo sapiens) (UniProt Q9BY41).
For another test, the system named is MKN-45. As to the kind of experiment: Antiproliferative activity against human MKN45 cells. It is filed as functional, cell-based.
In the next test the target is Cytochrome P450 3A4 (Homo sapiens, UniProt P08684). As to the kind of experiment: Inhibition of CYP3A4. It is filed as ADME.
Cytochrome P450 3A4, sequence (P08684 whole entry): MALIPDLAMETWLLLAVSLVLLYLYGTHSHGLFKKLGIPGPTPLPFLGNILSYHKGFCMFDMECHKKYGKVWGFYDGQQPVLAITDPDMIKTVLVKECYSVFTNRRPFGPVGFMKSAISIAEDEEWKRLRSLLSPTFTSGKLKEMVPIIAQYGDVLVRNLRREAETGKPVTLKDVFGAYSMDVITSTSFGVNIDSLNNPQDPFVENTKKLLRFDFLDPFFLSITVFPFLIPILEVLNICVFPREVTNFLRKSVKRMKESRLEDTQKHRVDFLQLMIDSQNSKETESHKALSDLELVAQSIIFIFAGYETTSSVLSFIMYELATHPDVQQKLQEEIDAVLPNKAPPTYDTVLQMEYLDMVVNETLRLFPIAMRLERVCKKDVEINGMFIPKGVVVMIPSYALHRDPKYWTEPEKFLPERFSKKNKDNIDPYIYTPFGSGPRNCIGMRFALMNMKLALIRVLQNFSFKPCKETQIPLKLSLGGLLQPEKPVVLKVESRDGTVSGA
The target in the next test is Histone deacetylase 4 (Homo sapiens, UniProt P56524). As to the kind of experiment: Inhibition of HDAC4 at 50 uM.
Histone deacetylase 4, sequence (P56524 whole entry): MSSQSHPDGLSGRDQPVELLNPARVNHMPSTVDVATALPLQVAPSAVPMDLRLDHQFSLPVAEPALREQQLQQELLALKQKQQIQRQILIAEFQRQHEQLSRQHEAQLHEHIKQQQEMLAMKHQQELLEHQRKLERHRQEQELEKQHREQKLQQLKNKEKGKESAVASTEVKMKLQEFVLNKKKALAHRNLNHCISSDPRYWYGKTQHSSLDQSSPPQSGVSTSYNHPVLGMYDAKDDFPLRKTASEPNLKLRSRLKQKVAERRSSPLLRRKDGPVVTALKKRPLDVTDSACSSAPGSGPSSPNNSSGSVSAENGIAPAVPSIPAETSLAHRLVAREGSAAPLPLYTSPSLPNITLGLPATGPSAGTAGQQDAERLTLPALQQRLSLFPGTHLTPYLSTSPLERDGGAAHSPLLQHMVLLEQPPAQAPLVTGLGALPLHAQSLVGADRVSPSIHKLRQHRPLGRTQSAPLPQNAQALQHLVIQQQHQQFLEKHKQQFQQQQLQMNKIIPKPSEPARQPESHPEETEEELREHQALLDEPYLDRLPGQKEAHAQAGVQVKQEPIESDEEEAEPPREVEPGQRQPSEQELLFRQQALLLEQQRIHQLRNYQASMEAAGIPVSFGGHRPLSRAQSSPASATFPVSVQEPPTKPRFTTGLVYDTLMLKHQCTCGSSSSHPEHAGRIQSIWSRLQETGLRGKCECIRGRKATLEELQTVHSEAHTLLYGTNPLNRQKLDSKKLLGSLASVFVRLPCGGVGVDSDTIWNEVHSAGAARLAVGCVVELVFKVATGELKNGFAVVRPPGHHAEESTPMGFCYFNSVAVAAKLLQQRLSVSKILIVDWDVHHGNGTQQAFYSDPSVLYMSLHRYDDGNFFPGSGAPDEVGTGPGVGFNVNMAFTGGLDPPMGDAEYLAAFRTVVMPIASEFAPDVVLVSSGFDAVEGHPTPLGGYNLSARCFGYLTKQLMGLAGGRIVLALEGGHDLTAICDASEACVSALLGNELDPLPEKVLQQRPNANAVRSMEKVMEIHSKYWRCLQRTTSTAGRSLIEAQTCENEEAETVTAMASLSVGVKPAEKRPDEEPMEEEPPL
The target in another test is T2, Histone deacetylase 8 (Homo sapiens, UniProt Q9BY41).
T2 sequence (Q9BY41 whole entry): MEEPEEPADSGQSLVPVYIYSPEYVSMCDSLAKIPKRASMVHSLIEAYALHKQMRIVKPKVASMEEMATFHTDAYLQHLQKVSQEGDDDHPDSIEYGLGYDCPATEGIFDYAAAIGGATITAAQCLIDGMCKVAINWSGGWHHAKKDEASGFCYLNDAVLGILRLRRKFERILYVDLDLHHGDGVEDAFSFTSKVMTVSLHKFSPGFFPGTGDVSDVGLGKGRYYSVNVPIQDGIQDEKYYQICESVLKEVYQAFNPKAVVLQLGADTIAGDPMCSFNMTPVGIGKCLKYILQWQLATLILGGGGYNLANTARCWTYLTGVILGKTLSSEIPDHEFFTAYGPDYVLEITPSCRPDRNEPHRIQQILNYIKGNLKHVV

Test [3] addresses T3, Protein deacetylase HDAC6 (Homo sapiens, UniProt Q9UBN7).
T3 sequence (Q9UBN7 whole entry): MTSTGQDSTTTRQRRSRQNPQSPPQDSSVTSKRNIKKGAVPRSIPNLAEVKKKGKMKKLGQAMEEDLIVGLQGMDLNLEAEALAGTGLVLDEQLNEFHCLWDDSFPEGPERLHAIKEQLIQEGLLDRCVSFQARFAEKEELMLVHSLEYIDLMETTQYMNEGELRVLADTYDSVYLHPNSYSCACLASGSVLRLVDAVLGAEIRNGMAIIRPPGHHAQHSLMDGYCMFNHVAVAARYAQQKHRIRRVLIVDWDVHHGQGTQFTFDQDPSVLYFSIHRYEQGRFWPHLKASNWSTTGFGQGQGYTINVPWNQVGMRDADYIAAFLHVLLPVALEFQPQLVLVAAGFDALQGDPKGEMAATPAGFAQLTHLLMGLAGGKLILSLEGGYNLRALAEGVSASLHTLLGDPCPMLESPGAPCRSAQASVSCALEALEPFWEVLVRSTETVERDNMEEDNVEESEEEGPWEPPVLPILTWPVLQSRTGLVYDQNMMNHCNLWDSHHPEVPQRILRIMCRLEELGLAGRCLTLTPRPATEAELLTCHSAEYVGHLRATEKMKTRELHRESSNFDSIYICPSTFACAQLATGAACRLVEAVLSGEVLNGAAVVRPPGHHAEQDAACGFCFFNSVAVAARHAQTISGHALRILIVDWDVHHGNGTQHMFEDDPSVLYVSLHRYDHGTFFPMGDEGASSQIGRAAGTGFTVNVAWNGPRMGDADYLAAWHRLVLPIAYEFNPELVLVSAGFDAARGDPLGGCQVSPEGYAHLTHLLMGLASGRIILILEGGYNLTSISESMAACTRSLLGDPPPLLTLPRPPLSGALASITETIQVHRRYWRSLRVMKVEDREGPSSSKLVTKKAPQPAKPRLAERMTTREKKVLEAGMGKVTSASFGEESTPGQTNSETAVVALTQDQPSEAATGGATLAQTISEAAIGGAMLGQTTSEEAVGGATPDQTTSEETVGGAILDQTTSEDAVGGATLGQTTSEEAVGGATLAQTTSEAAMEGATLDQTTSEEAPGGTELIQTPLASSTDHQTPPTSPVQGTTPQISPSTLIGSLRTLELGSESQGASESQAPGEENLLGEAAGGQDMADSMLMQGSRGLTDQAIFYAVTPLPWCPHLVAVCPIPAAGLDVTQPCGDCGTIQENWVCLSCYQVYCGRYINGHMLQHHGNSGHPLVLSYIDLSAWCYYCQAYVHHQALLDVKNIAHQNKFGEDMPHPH

The target of test [4] is Histone deacetylase (Homo sapiens) (UniProt Q13547+O15379+Q9UBN7+Q92769+Q9UQL6+Q8WUI4+Q9BY41+Q96DB2+P56524+Q9UKV0+Q969S8). Briefly: Inhibition of HDAC from human HeLa cells at 1000 nM. It is filed as cell-based.
Test [5] deals with T1, Histone deacetylase 1. As to the kind of experiment: Inhibition of HDAC1.
Test [6] concerns the target Histone deacetylase 1 (Mus musculus, UniProt O09106).
Description: Inhibition of mouse liver HDAC1
A further test concerns NCI-H460. Briefly: Inhibition of human NCI-H460 cells. It is filed as functional, cell-based.
A further test deals with COLO 205. As to the kind of experiment: Inhibition of human CoLo205 cells. It is filed as functional.
Another test has as its system MDA-MB-231. Briefly: Inhibition of human MDA-MB-231 cells. It is filed as functional, cell-based.
The next test deals with SNB-78. Briefly: Inhibition of human SNB78 cells. It is filed as functional, cell-based.
In the next test the test system is HCT-116. As to the kind of experiment: Inhibition of human HCT116 cells. It is filed as functional, cell-based.
Another test concerns NCI-H226. As to the kind of experiment: Inhibition of human NCI-H226 cells. It is filed as functional, cell-based.
Another test concerns LOX IMVI. As to the kind of experiment: Inhibition of human LOX-IMVI cells. It is filed as functional, cell-based.
For the next test, the system named is SK-OV-3. As to the kind of experiment: Inhibition of human SKOV3 cells. It is filed as functional, cell-based.
The nature of test [7]: Inhibition of human RFX631L cells. It is filed as functional.
The test system of another test is St-4. Briefly: Inhibition of human St4 cells. It is filed as functional, cell-based.
For a further test, the system named is DU-145. As to the kind of experiment: Inhibition of human DU145 cells. It is filed as functional, cell-based.

Histone deacetylase 9, sequence (Q9UKV0 whole entry): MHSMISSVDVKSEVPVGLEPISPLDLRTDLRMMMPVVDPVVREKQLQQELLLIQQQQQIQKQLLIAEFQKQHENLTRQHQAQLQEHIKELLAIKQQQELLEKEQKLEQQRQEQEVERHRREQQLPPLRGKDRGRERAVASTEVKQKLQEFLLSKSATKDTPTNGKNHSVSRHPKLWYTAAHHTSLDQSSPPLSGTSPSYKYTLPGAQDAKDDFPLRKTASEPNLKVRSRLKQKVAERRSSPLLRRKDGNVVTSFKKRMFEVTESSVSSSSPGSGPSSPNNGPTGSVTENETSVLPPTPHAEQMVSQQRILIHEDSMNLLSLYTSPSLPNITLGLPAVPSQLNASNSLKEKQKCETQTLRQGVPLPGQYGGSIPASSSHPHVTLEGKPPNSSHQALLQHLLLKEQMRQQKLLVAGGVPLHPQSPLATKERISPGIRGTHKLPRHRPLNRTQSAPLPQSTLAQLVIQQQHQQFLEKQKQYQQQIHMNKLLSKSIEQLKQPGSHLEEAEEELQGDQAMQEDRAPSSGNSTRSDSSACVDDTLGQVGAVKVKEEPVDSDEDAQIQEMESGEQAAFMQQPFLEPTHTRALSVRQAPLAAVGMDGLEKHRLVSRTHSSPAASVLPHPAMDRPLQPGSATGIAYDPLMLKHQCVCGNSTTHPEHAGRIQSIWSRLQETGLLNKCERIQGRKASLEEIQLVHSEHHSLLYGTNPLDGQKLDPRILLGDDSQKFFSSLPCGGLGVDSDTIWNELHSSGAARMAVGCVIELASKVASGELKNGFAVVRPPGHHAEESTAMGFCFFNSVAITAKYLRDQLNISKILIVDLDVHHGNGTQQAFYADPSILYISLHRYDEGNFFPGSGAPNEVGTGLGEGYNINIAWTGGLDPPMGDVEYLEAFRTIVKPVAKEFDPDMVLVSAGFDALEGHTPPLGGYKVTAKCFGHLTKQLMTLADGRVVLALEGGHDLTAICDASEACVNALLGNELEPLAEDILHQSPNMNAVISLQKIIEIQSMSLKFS
Histone deacetylase 7, sequence (Q8WUI4 whole entry): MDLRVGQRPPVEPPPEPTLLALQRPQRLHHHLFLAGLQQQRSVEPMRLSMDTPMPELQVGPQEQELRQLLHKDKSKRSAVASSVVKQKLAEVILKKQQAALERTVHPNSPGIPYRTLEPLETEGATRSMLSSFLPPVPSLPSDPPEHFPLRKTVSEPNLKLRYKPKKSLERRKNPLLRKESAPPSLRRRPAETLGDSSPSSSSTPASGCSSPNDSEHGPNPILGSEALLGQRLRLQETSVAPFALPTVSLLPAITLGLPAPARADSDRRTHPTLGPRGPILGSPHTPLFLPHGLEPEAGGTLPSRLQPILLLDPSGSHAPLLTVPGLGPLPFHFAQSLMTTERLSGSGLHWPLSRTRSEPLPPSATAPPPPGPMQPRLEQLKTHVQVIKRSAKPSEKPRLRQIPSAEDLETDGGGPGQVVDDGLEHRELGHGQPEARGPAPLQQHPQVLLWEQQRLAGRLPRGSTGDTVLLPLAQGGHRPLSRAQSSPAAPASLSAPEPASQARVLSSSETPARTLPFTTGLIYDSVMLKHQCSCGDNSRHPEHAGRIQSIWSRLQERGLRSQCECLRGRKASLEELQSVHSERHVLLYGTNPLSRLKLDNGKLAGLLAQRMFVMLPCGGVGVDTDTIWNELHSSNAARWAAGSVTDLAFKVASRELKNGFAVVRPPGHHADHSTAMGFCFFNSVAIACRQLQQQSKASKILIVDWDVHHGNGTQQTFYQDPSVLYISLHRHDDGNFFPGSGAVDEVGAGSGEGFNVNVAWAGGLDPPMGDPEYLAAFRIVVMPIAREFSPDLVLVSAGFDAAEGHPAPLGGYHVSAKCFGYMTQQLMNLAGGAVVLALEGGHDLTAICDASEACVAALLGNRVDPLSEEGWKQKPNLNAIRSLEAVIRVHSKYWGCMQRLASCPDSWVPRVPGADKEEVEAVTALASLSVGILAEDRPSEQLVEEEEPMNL
Histone deacetylase 1 (Mus musculus, UniProt O09106), sequence (O09106 whole entry): as the sequence (Q13547 whole entry) above, with R8K, D399E, E424D counted along it
Histone deacetylase 3, sequence (O15379 whole entry): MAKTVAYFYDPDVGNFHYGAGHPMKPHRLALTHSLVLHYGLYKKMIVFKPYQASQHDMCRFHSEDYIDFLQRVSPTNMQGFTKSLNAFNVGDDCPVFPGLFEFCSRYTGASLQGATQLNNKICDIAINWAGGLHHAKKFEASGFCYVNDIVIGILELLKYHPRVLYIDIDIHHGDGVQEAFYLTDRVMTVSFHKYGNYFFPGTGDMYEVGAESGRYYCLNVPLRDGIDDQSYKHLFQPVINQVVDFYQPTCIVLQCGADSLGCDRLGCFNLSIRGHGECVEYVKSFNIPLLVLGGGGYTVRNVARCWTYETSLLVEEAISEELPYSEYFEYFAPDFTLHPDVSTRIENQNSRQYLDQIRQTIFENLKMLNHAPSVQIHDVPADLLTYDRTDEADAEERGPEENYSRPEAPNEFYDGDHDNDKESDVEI

Broadly, the IC50 is the concentration needed to halve the response being measured. Lower therefore signals inhibition by little substance. On to `O=C(CCc1ccccc1)Nc1ccc(C(=O)Nc2ccc(Oc3ccccc3)cc2)cc1`, for which, on Histone deacetylase 1 [1], it took 1500 nM to reach half-maximal inhibition (IC50). The outcome in test [2] was inactive.

As for `O=C(NO)c1ccc(-c2ccn(CCNCc3ccc4c(c3)OCO4)n2)s1`, the IC50 was 630 nM with MKN-45 and 510 nM on Cytochrome P450 3A4.

What is called inhibition is the relative decrease from the control value, in per cent. High values mean a strong effect, low ones a weak effect. With `CC(C)[C@H]1NC(=O)[C@@H](C)[C@@H](C/C=C\CCC(=O)O)NC(=O)[C@@H](Cc2ccccc2)NC(=O)[C@@H](C)NC1=O` [AZUMAMIDE E], the IC50 on Histone deacetylase 3 is 80 nM; against Histone deacetylase 8, 3700 nM; in [3] it was 12000 nM; at Histone deacetylase 9 it was 28000 nM; against Histone deacetylase 5, 10000 nM; on Histone deacetylase 7, 9700 nM. In addition, the inhibition against Histone deacetylase 4 was 30%.

Turning to `O=C(/C=C/c1cccc(NS(=O)(=O)Cc2ccccc2)c1)NO`, the inhibition in test [4] was 23%.

Turning to `S=c1[nH]cc(-c2ccncc2)[nH]1`, the outcome at Histone deacetylase 1 [5] was inactive.

Turning to `CC(C)(c1ccccc1)c1cc(=O)[nH]c(SCCCCCC(=O)NO)n1`, the midpoint of inhibition against Histone deacetylase 1 [6], the IC50, lay at 121 nM.

Usually EC50 stands for the concentration at which the effect is half-maximal. A higher EC50 goes with lower potency in that assay. The compound `CC(C)C(=O)SCCCCCCC(=O)Nc1ccccc1` yielded an EC50 in the test on NCI-H460 of 20000 nM. That is a double-digit micromolar value.

The compound `O=C(CCCCCCS)Nc1ccccc1` yielded an EC50 in the test with NCI-H460 greater than 50000 nM.

Usually GI50 stands for the concentration giving 50% growth inhibition. Higher therefore signals less potent growth inhibition. For the compound `CC(C)(C)NCc1c(-c2ccccc2)nc2cc(/C=C/C(=O)NO)ccn12`, in the test with COLO 205, the GI50 was 260 nM.

As to `CC(C)C(=O)SCCCCCCC(=O)Nc1nc(-c2ccccc2)cs1`, the EC50 worked out at 2000 nM in the test with NCI-H460; 2300 nM with MDA-MB-231; 9100 nM with SNB-78; 3000 nM with HCT-116; 2600 nM in the test on NCI-H226; 1100 nM with LOX IMVI. Besides, the EC50 in the test with SK-OV-3 was determined as 4500 nM; in test [7] it was 2400 nM; with St-4, 5000 nM; in the test with DU-145, 4500 nM.
